Measured values as given in publication PMC5503534, “Stable aneuploid tumors cells are more sensitive to TTK inhibition than chromosomally unstable cell lines” (Oncotarget, 2017).
Read-outs that look alike come from different tables or passages of the source.

Tests used:
TTK kinase domain = molecular target: T1, TTK kinase domain (Homo sapiens, UniProt P33981); assay: Surface plasmon resonance binding kinetics, TTK; conditions: SPR, geometric average
T1 construct: using bacterially expressed TTK kinase domain and Sf9 insect cell-expressed Aurora B; purchased Carna Biosciences, Inc., Kobe, Japan
T1 sequence (P33981 525-791 limits assumed): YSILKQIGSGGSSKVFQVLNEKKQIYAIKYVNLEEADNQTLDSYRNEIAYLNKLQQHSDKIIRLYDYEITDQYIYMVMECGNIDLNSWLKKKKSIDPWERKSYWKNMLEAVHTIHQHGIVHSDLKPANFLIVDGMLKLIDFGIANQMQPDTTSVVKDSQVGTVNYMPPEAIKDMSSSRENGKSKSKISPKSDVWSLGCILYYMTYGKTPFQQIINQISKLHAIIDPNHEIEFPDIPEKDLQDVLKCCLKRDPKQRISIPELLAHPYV
Text: (§1) Originally, the compound was identified in a phenotypic screen for molecules that can induce stem-cell like phenotypes. Later this property was attributed to its ability to inhibit the mitotic kinase Aurora B [39].

full-length Aurora B = molecular target: T2, full-length Aurora B (Homo sapiens, UniProt Q96GD4); assay: Surface plasmon resonance binding kinetics, Aurora B; conditions: SPR, geometric average
T2 construct: to the kinase domain of TTK and full-length Aurora B; purchased Carna Biosciences, Inc., Kobe, Japan; host or cells: Sf9 insect cells
Text: as §1

[1] = system: HCT 116 colon carcinoma cell line; assay: Cell proliferation assay (ATPlite), HCT 116; format: cell-based, human; conditions: for IC50: Homo sapiens, HCT-116, 120 h
Protocol: (§2) Cell proliferation assays were carried out as described using ATPlite 1step™ (Perkin Elmer, Groningen, The Netherlands). Exposure time was 72 or 120 hours as indicated in the Legends to the Figures. Percentage growth was calculated, relative to the growth of unexposed cells, and relative IC50s were fitted using a four-parameter logistics curve (XLfit 5.3, IDBS). For Figure 4A and 7 dose response curves were redrawn in Prism. To compare the inhibitory potency of compounds in proliferation assays with HCT 116 parental and tetraploid clones, pIC50 (−^10logIC50) values were compared in three independent experiments. A two-tailed Student's t-test was performed to determine whether differences in sensitivity (ΔpIC50) were statistically significant. Caspase 3/7 activity of cancer cells was measured using Caspase-Glo 3/7 Assay kit (cat no. G8093, Promega, Madison USA). Viability of T-ALL cell samples was determined using ATPlite and exposure of 72 hours as described previously.

[2] = system: A-172 glioblastoma cell line; assay: Cell proliferation assay (ATPlite), A-172; format: cell-based, human; conditions: Homo sapiens, 120 h, 5 day proliferation assay
Protocol: as §2

[3] = system: DoTc2 4510 cervix carcinoma cell line; assay: Cell proliferation assay (ATPlite), DoTc2 4510; format: cell-based, human; conditions: Homo sapiens, 120 h, 5 day proliferation assay
Protocol: as §2

[4] = system: MG-63 osteosarcoma cell line; assay: Cell proliferation assay (ATPlite), MG-63; format: cell-based, human; conditions: Homo sapiens, 120 h, 5 day proliferation assay
Protocol: as §2

[5] = system: OVCAR-3 ovary adenocarcinoma cell line; assay: Cell proliferation assay (ATPlite), OVCAR-3; format: cell-based, human; conditions: Homo sapiens, 120 h, 5 day proliferation assay
Protocol: as §2

[6] = system: post-tetraploid HPT1 cells; assay: Cell proliferation assay, post-tetraploid HPT1; format: cell-based, human; conditions: HPT1, five days
Protocol: (§3) Cancer cell lines and hTERT-RPE1 retinal pigment epithelial cells were purchased from the American Type Culture Collection (ATCC) (Manassas, VA, U.S.A.) from 2011 to 2014 [41] and cultured in ATCC-recommended media. All experiments were carried out within nine passages of the original vials from ATCC who authenticated the cancer cell lines by short tandem repeat analysis. We verified the mutant status of seven frequently mutated cancer genes (i.e., BRAF, CDKN2A, CTNNB1, EGFR, KRAS, PIK3CA and TP53) by full exome or targeted sequencing. Sequencing results were compared to COSMIC version 75 of the Genomics of Drug Sensitivity in Cancer data base and provided additional authentication of the identity of the cell lines. The isolation and characterization of post-tetraploid clones from HCT 116 has been described previously. The mutation status of the CDKN2A, CTNNB1, KRAS and PIK3CA genes were confirmed by sequence analysis in both the HCT 116 parental cell line and post-tetraploid clones. All experiments were carried out within nine passages of the original cell stocks that were transferred from the Max Planck Institute of Biochemistry (Martinsried, Germany) to Netherlands Translational Research Center.
as §2

[7] = system: post-tetraploid HPT2 cells; assay: Cell proliferation assay, post-tetraploid HPT2; format: cell-based, human; conditions: HPT2, five days
Protocol: as §3, §2

[8] = system: post-tetraploid HPT4 cells; assay: Cell proliferation assay, post-tetraploid HPT4; format: cell-based, human; conditions: HPT4, five days
Protocol: as §3, §2

[9] = system: HCT 116 vs HPT1, -2 and -4; assay: Drug sensitivity analysis, HCT116 diploid versus tetraploids; format: cell-based, human
Protocol: as §2

[10] = system: patient-derived colorectal carcinoma organoids; assay: Organoids drug sensitivity and viability assay; format: cell-based, human; conditions: Homo sapiens
Protocol: The establishment and characterization of the human colon cancer organoids has been described. The organoids were cultured in drops of Geltrex LDEV-Free Reduced Growth Factor Basement Membrane Matrix (Gibco, cat no. A1413202) in DMEM/F12 medium (Thermo), supplemented with 1% (v/v) penicillin/streptomycin (Gibco), 1% Hepes buffer, pH7.5, 1% L-glutamine (Gibco), 1 μg/mL R-spondin (Sigma), 100 ng/mL Noggin (Peprotech), B27 vitamin A-free (Invitrogen, cat no. 12587010), 1 mM n-acetyl cysteine (Sigma), 10 mM nicotinamide (Sigma), 50 ng/mL EGF (BD Biosciences), 500 nM A83-01 (Tocris), 10 μM SB202190 (Sigma), 10 μM Y-27632 (Sigma) and 10 nM Prostaglandin E2 (Cayman). Medium was refreshed every four days and organoids were splitted by treatment with TryPLE Express (Gibco, cat. no. 12604013).
Organoids were dissociated by TryPLE Express treatment and filtered using a 40 μm nylon cell strainer (Falcon). The organoids were re-suspended in Geltrex at a density of 250,000 cells/mL and seeded in the wells of 96-well plates (Corning, cat no. 3903) at 10 μl per well. Compounds were added four days after plating and 72 hours later viability was determined using Cell-Titer Glo 3D Cell Viability Assay (Promega, Madison USA). Experiments were performed in three biological replicates and technical triplicates were averaged per experiment.

[11] = system: 66 cancer cell lines (44 cell lines); design: method as in earlier work; conditions: 5 days; geometric average in 66 cancer cell lines; cited from earlier work
[12] = Homo sapiens, 120 h, geometric average of three experiments

T2 sequence (Q96GD4 whole entry, the tested form may be a part): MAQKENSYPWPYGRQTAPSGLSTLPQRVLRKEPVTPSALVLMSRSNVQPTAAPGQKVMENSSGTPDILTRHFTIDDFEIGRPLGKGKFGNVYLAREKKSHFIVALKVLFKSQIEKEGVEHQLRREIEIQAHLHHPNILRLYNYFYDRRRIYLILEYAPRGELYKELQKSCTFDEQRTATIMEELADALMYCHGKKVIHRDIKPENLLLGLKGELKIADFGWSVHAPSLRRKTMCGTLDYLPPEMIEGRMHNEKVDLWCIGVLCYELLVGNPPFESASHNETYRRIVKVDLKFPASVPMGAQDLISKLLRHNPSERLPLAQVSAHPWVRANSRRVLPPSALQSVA

- kd (TTK kinase domain): 8.86e-05 s⁻¹
- kd (full-length Aurora B): 0.00484 s⁻¹
- IC50 ([1]; 5 day proliferation assay, HCT 116 (Suppl. Table 1)): 175 nM
- IC50 ([1]; HCT 116 near-diploid, five days, geometric average of three experiments (Suppl. Table 2A)): 242 nM
- IC50 [2]: 158 nM
- IC50 [3]: 416 nM
- IC50 [4]: 434 nM
- IC50 [5]: 441 nM
- IC50 ([10]; 72 h, organoid p14, three days, read-out: IC50): 493 nM
- IC50 ([10]; 72 h, organoid p14, three days, read-out: pIC50 (converted)): 468 nM
- IC50 ([10]; 72 h, organoid p18, three days, read-out: IC50): 285 nM
- IC50 ([10]; 72 h, organoid p18, three days, read-out: pIC50 (converted)): 269 nM
- IC50 ([10]; 72 h, organoid p28, three days, read-out: IC50): 757 nM
- IC50 ([10]; 72 h, organoid p28, three days, read-out: pIC50 (converted)): 646 nM
- IC50 ([10]; All organoids, geometric average, read-out: pIC50 (converted)): 437 nM
Structure (SMILES): c1nc2nc(Nc3ccc(N4CCOCC4)cc3)nc(NC3CCCCC3)c2[nH]1 [reversine]
- Eff. (%) ([1]; HCT 116, five days, maximum inhibitory effect, average of three experiments): 77%
- Efficacy (%) ([6]; average of three experiments): 58%
- IC50 [6, 12]: 208 nM
- Efficacy (%) ([7]; average of three experiments): 44%
- IC50 [7, 12]: 253 nM
- Efficacy (%) ([8]; average of three experiments): 33%
- IC50 [8, 12]: 159 nM
- Δeff. (%) ([9]; HCT 116 vs HPT1, -2 and -4): −32%
- Phenotype (efficacy) ([9]; HCT 116 vs HPT1, -2 and -4, based on % effect): resistant
- Phenotype (potency) ([9]; HCT 116 vs HPT1, -2 and -4, 'resistant' indicates that tetraploids are resistant): sensitive
- ΔpIC50 ([9]; average log shift in sensitivity between parental and tetraploids): −0.08
- IC50 [11]: 239 nM
